Consider three molecules from ChEMBL document CHEMBL4732086, “Targeting nuclear protein TDP-43 by cell division cycle kinase 7 inhibitors: A new therapeutic approach for amyotrophic lateral sclerosis” (Eur J Med Chem, 2021).

Activity calls are given as the source filed them. No cut-off for these calls is given here.

The target of experiment [1] is Casein kinase I isoform epsilon (Homo sapiens) (UniProt P49674). The experiment is described as follows: Inhibition of human CSNK1E expressed in baculovirus expression system using serine/threonine-11 peptide as substrate at 10 uM incubated for 60 mins in presence of ATP by Z'-LYTE assay.
For experiment [2], the target named is CDC7/DBF4 (Cell division cycle 7-related protein kinase/Activator of S phase kinase) (Homo sapiens) (UniProt Q9UBU7+O00311). The experiment is described as follows: Inhibition of recombinant human GST tagged CDC7/Dbf4 expressed in baculovirus expression system at 10 uM by Z'-LYTE assay.
Experiment [3] addresses Maternal embryonic leucine zipper kinase (Homo sapiens) (UniProt Q14680). The experiment is described as follows: Inhibition of recombinant human full length GST-tagged MELK expressed in baculovirus expression system using serine/threonine-21 peptide as substrate at 10 uM by Z'-LYTE assay. Particulars: time 60.0 min.
Experiment [4] addresses Platelet-derived growth factor receptor alpha (Homo sapiens) (UniProt P16234). The experiment is described as follows: Inhibition of recombinant human GST-tagged PDGFRA expressed in baculovirus expression system using Tyr-04 peptide as substrate at 10 uM by Z'-LYTE assay. The note with it: time 60.0 min.
For experiment [5], the target named is T1, Tyrosine-protein kinase JAK3 (Homo sapiens) (UniProt P52333).
T1 sequence (whole entry): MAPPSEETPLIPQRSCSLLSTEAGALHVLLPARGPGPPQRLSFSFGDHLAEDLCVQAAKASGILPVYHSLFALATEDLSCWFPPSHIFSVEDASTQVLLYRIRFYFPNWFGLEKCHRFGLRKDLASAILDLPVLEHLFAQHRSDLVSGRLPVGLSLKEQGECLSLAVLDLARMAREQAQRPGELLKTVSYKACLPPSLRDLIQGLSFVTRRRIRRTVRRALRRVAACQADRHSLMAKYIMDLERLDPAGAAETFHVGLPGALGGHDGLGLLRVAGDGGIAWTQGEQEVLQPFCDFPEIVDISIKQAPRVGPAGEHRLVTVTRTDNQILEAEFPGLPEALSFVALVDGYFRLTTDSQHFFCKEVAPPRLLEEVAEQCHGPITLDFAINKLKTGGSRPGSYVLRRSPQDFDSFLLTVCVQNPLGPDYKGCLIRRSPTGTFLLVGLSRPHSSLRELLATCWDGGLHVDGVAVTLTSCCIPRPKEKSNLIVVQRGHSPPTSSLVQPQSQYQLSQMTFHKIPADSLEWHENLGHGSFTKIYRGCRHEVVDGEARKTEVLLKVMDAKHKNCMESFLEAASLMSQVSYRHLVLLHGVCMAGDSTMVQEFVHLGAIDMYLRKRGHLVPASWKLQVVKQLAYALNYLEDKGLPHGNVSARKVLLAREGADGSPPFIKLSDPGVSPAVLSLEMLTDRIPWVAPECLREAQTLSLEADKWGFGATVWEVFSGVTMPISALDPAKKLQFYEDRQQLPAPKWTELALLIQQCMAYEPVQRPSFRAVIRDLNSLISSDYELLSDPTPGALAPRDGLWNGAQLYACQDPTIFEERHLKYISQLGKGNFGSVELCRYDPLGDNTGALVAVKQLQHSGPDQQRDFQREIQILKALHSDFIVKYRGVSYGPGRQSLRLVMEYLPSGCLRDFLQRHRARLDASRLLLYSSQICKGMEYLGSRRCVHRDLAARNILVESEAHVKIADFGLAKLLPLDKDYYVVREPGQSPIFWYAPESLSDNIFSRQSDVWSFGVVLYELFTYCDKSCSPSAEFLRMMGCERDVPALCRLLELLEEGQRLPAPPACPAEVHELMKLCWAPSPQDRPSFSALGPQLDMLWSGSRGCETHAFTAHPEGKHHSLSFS
The experiment is described as follows: Inhibition of recombinant human GST-tagged JAK3 expressed in baculovirus expression system using Tyr-06 peptide as substrate at 10 uM incubated for 60 mins in presence of ATP by Z'-LYTE assay.

Experiment [6] concerns the target Calcium/calmodulin-dependent protein kinase type II subunit alpha (Homo sapiens) (UniProt Q9UQM7). The experiment is described as follows: Inhibition of recombinant full length human His-tagged CAMK2alpha expressed in baculovirus expression system using serine/threonine-4 peptide as substrate at 10 uM incubated for 60 mins in presence of ATP by Z'-LYTE assay.
In experiment [7] the target is Calcium/calmodulin-dependent protein kinase type 1D (Homo sapiens) (UniProt Q8IU85). The experiment is described as follows: Inhibition of recombinant full length human His-tagged CAMK1delta expressed in baculovirus expression system using serine/threonine-25 peptide as substrate at 10 uM incubated for 60 mins in presence of ATP by Z'-LYTE assay.
For experiment [8], the target named is Casein kinase II subunit alpha (Homo sapiens) (UniProt P68400). The experiment is described as follows: Inhibition of recombinant human full length His-tagged CSNK2A1 expressed in baculovirus expression system using serine/threonine-11 peptide as substrate at 10 uM incubated for 60 mins in presence of ATP by Z'-LYTE assay.
In experiment [9] the target is Cell division cycle 7-related protein kinase (Homo sapiens) (UniProt O00311). The experiment is described as follows: Inhibition of human CDC7 in human SH-SY5Y cells assessed as prevention of ethacrynic acid-induced cell death preincubated for 1 hr followed by incubation with ethacrynic acid for 24 hrs measured at 10 uM by MTT assay relative to control. The class given is cell-based.

In experiment [10] the target is Mitogen-activated protein kinase 3 (Homo sapiens) (UniProt P27361). The experiment is described as follows: Inhibition of recombinant human full length GST-tagged MAPK3 expressed in Escherichia coli expression system using serine/threonine-03 peptide as substrate at 10 uM by Z'-LYTE assay. The note with it: time 60.0 min.
Experiment [11] deals with Serine/threonine-protein kinase MARK1 (Homo sapiens) (UniProt Q9P0L2). The experiment is described as follows: Inhibition of recombinant human full length GST-tagged MARK1 expressed in baculovirus expression system using serine/threonine-21 peptide as substrate at 10 uM by Z'-LYTE assay. Particulars: time 60.0 min.
Experiment [12] deals with Serine/threonine-protein kinase pim-3 (Homo sapiens) (UniProt Q86V86). The experiment is described as follows: Inhibition of recombinant human GST-tagged PIM3 expressed in baculovirus expression system using serine/threonine-07 peptide as substrate at 10 uM by Z'-LYTE assay. Particulars: time 60.0 min.
In experiment [13] the target is CDC7/DBF4 (Cell division cycle 7-related protein kinase/Activator of S phase kinase) (Homo sapiens, UniProt O00311). The experiment is described as follows: Inhibition of recombinant human CDC7/Dbf4 expressed in baculovirus infected Sf9 insect cells assessed as inhibition of fluorescein labelled substrate phosphorylation in presence of ATP measured after 60 mins by TR-FRET assay.
Chain of CDC7/DBF4 (Cell division cycle 7-related protein kinase/Activator of S phase kinase) (Q9UBU7 whole entry): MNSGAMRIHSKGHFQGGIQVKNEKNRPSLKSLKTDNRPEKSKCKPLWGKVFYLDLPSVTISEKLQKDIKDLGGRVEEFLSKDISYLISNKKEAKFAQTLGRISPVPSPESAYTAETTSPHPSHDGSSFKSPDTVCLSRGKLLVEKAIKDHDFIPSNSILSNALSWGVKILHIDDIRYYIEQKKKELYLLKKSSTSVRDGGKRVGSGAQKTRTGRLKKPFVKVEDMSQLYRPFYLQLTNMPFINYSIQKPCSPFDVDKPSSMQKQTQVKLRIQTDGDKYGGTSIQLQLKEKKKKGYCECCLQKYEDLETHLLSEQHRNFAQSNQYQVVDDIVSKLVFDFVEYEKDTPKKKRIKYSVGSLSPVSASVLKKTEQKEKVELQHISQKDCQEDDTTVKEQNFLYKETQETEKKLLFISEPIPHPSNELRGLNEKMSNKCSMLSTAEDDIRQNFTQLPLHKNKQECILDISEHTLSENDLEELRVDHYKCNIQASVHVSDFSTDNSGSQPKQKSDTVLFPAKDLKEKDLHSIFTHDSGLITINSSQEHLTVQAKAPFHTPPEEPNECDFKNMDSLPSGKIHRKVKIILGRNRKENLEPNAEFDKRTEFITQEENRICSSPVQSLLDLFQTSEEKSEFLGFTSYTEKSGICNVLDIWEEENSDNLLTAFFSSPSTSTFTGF
Chain of CDC7/DBF4 (Cell division cycle 7-related protein kinase/Activator of S phase kinase) (O00311 whole entry): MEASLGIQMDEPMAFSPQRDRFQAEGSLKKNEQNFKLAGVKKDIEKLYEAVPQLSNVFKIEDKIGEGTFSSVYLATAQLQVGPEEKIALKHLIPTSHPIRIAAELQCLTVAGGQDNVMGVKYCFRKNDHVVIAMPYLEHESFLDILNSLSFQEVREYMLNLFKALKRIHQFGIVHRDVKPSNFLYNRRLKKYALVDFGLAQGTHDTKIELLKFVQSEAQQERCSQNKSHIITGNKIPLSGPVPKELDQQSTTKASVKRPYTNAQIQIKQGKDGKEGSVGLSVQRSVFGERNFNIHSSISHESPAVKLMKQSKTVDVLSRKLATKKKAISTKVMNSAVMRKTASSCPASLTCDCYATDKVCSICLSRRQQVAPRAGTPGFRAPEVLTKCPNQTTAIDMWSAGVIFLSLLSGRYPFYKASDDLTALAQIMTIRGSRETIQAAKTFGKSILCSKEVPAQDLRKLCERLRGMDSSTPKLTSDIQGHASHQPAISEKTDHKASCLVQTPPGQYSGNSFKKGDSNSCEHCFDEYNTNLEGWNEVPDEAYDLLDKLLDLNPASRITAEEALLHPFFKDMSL

Chain of Cell division cycle 7-related protein kinase (Homo sapiens) (O00311 whole entry, looked up): as the sequence (O00311 whole entry) above
Chain of CDC7/DBF4 (Cell division cycle 7-related protein kinase/Activator of S phase kinase) (Homo sapiens) (O00311 whole entry, looked up): as the sequence (O00311 whole entry) above
Chain of CDC7/DBF4 (Cell division cycle 7-related protein kinase/Activator of S phase kinase) (Homo sapiens) (Q9UBU7 whole entry, looked up): as the sequence (Q9UBU7 whole entry) above
Chain of Casein kinase I isoform epsilon (Homo sapiens) (P49674 whole entry, looked up, canonical isoform): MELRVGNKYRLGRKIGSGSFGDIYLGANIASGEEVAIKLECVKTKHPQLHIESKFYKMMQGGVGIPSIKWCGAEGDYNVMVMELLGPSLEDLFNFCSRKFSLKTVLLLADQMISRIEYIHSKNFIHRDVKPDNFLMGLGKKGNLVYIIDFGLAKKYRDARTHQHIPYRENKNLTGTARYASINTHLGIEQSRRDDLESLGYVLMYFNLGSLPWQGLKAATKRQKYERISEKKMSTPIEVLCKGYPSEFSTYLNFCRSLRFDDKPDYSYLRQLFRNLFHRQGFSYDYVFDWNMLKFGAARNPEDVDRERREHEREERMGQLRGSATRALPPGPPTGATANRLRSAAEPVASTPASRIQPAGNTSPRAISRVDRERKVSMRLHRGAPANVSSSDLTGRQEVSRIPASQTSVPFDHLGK
Chain of Casein kinase II subunit alpha (Homo sapiens) (P68400 whole entry, looked up): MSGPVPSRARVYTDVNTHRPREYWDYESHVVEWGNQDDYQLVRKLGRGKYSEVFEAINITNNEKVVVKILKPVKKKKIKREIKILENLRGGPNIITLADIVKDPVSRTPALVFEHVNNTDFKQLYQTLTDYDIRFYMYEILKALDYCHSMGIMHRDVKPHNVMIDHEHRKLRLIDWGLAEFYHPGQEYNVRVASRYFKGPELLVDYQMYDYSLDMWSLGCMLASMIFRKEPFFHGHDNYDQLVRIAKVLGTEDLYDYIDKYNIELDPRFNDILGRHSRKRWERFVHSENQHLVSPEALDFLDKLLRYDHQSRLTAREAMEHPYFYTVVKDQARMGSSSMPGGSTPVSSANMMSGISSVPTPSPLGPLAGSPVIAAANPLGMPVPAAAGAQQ
Chain of Mitogen-activated protein kinase 3 (Homo sapiens) (P27361 whole entry): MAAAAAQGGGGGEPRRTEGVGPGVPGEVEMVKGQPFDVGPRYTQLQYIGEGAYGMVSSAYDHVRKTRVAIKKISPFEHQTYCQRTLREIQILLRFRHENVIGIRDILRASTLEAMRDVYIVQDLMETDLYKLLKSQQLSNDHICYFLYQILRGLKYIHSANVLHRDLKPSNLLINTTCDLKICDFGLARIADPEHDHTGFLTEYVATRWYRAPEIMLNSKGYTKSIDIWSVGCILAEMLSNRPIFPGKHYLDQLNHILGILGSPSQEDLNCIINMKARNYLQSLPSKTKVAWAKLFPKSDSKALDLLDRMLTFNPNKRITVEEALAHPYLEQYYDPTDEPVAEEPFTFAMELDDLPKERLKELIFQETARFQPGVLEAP
Chain of Calcium/calmodulin-dependent protein kinase type 1D (Homo sapiens) (Q8IU85 whole entry, looked up): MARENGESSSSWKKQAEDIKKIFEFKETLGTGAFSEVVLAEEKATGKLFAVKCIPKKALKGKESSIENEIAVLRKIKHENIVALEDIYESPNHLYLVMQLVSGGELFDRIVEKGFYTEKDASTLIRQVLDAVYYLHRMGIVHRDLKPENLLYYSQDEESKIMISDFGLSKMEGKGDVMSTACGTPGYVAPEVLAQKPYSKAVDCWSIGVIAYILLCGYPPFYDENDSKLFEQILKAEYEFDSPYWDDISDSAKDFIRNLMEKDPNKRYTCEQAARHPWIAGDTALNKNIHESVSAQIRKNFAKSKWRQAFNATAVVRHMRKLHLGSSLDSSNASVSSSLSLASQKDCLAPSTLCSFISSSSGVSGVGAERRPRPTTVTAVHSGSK
Chain of Maternal embryonic leucine zipper kinase (Homo sapiens) (Q14680 whole entry, looked up): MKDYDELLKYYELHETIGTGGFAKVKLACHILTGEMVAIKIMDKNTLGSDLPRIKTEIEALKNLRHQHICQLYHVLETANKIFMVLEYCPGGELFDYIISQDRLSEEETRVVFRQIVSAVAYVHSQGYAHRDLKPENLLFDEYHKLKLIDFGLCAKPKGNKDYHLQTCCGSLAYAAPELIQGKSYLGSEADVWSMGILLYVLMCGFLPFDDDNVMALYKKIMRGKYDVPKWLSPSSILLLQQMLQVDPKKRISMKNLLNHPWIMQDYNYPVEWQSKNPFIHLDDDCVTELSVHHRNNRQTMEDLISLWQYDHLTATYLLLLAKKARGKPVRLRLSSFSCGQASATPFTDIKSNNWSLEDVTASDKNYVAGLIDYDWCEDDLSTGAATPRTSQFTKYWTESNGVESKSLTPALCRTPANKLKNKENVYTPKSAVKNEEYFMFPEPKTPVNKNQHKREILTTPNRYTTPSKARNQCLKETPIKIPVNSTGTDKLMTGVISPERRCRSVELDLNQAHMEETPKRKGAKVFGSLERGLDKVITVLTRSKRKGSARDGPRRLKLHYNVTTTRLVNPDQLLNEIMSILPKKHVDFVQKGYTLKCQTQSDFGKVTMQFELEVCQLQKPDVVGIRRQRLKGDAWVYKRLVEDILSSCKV
Chain of Calcium/calmodulin-dependent protein kinase type II subunit alpha (Homo sapiens) (Q9UQM7 whole entry): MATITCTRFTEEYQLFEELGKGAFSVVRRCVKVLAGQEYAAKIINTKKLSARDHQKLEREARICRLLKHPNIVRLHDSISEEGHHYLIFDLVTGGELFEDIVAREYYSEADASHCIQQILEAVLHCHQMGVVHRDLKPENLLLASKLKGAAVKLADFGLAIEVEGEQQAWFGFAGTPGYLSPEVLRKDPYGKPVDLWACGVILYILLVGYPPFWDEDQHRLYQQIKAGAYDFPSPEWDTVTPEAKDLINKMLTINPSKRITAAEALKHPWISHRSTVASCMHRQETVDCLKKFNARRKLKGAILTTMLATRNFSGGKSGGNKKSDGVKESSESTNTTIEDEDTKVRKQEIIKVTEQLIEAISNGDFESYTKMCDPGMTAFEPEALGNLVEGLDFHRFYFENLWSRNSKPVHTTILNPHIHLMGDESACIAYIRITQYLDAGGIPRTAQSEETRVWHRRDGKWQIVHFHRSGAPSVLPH

In the case of `Clc1cccc(CSc2ncnc3[nH]cnc23)c1`, the inhibition result in experiment [1], in [3], in experiment [4], in experiment [5], in experiment [6] and in experiment [7] was “inactive” each time. The inhibition entry in experiment [8], in [10], in experiment [11] and in [12] was “inactive” throughout. For the same molecule, the inhibition result in experiment [2] and in experiment [9] was “Active” in each case. The IC50 in experiment [13] was 140 nM.
In the case of `Brc1ccccc1CSc1ncnc2[nH]cnc12`, the inhibition result in experiment [1], in experiment [3], in experiment [4], in experiment [5], in experiment [6] and in [7] was “inactive” each time. Further, the inhibition result in experiment [8], in experiment [10], in [11] and in experiment [12] was “inactive” throughout. Also, the inhibition entry in experiment [2] and in experiment [9] was “Active” throughout. Moreover, in [13], the IC50 turned out to be 270 nM.
Regarding `c1ccc(CSc2ncnc3[nH]cnc23)cc1`, the inhibition result in [1], in experiment [3], in [4], in experiment [5], in [6] and in experiment [7] was “inactive” in each case. Also, the inhibition entry in [8], in experiment [10], in [11] and in experiment [12] was “inactive” throughout. Besides, the inhibition result in [2] and in [9] was “Active” each time. Further, the IC50 in [13] came to 200 nM.
